Reference: US20020137929A1, “1 - (3-heterocyclylphenyl) isothiourea, -isourea, -guanidine and -amidine herbicidal agents” (Intellectual Property Department, BASF Aktiengesellschaft, priority 1998, published 2002)

How the values were obtained:
[1] = tested on: GALAP (Galium); experiment: Postemergence herbicidal evaluation; assay type: in vivo, Galium aparine; conditions: for herbicidal rating GALAP: postemergence
Method in brief: (§1)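 Compound is applied as a foliar spray to seedlings about two weeks old, formulated in equal parts acetone and water with 0.5% TWEEN 20 and delivered at 40 psi to give about 0.0156–0.500 kg per hectare. Injury is rated visually 0–9 after four to five weeks.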

[2] = tested on: ABUTH (Velvetleaf); experiment: Postemergence herbicidal evaluation; assay type: in vivo, Abutilon theophrasti; conditions: for herbicidal rating ABUTH: postemergence
Method in brief: as §1

[3] = tested on: GALAP (Galium); experiment: Preemergence herbicidal evaluation; assay type: in vivo, Galium aparine; conditions: rated 4-5 weeks after treatment
Method in brief: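 Sown cups got a single aqueous acetone spray of test compound (roughly 0.0156–0.500 kg/ha) before seedlings emerged. Evaluation, 4–5 weeks on, used a 0–9 visual scale covering plant stand, vigor, size, malformation, chlorosis and general appearance compared with controls.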

SMILES	herbicidal rating GALAP ([1]; rate 0.0156 kg/ha)	herbicidal rating GALAP ([1]; rate 0.0313 kg/ha)	herbicidal rating GALAP ([1]; rate 0.0625 kg/ha)	herbicidal rating ABUTH ([2]; rate 0.0156 kg/ha)	herbicidal rating ABUTH ([2]; rate 0.0313 kg/ha)	herbicidal rating ABUTH ([2]; rate 0.0625 kg/ha)	Preemergence herbicidal rating GALAP ([3]; 0.0156 kg/ha)	Preemergence herbicidal rating GALAP ([3]; 0.0313 kg/ha)	Preemergence herbicidal rating GALAP ([3]; 0.0625 kg/ha)	Preemergence herbicidal rating GALAP ([3]; rate 0.1250 kg/ha, rating scale 0-9)	Preemergence herbicidal rating GALAP ([3]; rate 0.2500 kg/ha, rating scale 0-9)	herbicidal rating GALAP ([1]; rate 0.1250 kg/ha)	herbicidal rating ABUTH ([2]; rate 0.1250 kg/ha)	Preemergence herbicidal rating GALAP ([3]; 0.1250 kg/ha)	Preemergence herbicidal rating GALAP ([3]; 0.2500 kg/ha)	Preemergence herbicidal rating GALAP ([3]; 0.5000 kg/ha)	Postemergence herbicidal rating GALAP ([1]; Rate 0.0156 kg/ha)	Postemergence herbicidal rating GALAP ([1]; Rate 0.0313 kg/ha)	Postemergence herbicidal rating ABUTH ([2]; Rate 0.0156 kg/ha)	Postemergence herbicidal rating ABUTH ([2]; Rate 0.0313 kg/ha)
COC(=O)CSCCN1C(=O)CSC1=Nc1cc(-n2c(=O)cc(C(F)(F)F)n(C)c2=O)c(F)cc1Cl [Compound 158, Methyl {{2-{2-{{2-chloro-5-[3,6-dihydro-3-methyl-2,6-dioxo-4-(trifluoromethyl)-1(2H)-pyrimidinyl]-4-fluorophenyl}imino}-4-oxo-3-thiazolidinyl}ethyl}-thio}acetate]	0.0	2.0	3.0	9.0	9.0	9.0	0.0	0.0	5.0	7.0	6.0	–	–	–	–	–	–	–	–	–
C=CCN1C(=O)C(CC(=O)NO)SC1=Nc1cc(-n2c(=O)cc(C(F)(F)F)n(C)c2=O)c(F)cc1Cl (centres unmarked) [Compound 161, 3-Allyl-2-{{2-chloro-5-[3,6-dihydro-3-methyl-2,6-dioxo-4-(trifluoromethyl)-1(2H)-pyrimidinyl]-4-fluorophenyl}imino}-4-oxo-5-thiazolidineacetohydroxamic acid]	0.0	1.0	2.0	0.0	5.0	7.0	0.0	0.0	3.0	–	–	4.0	9.0	7.0	7.0	9.0	–	–	–	–
CN1C(=O)C(CC(=O)NO)SC1=Nc1cc(-n2c(=O)cc(C(F)(F)F)n(C)c2=O)c(F)cc1Cl (centres unmarked) [Compound 162, 2-{{2-Chloro-5-[3,6-dihydro-3-methyl-2,6-dioxo-4-(trifluoromethyl)-1(2H)-pyrimidinyl]-4-fluorophenyl}imino}-3-methyl-4-oxo-5-thiazolidineacetohydroxamic acid]	0.0	3.0	6.0	9.0	9.0	9.0	0.0	0.0	0.0	–	–	–	–	3.0	3.0	–	–	–	–	–
Cn1c(C(F)(F)F)cc(=O)n(-c2cc(N=C3SCC(=O)N3CC(F)(F)F)c(Cl)cc2F)c1=O [Compound 163, 3-{4-Chloro-2-fluoro-5-{[4-oxo-3-(2,2,2-trifluoroethyl)-2-thiazolidinylidene]amino}phenyl}-1-methyl-6-(trifluoromethyl)-2,4(1H,3H)-pyrimidinedione]	0.0	3.0	5.0	9.0	9.0	9.0	0.0	0.0	0.0	–	–	–	–	0.0	3.0	–	–	–	–	–
C#CC(C)N1C(=O)CSC1=Nc1cc(-n2c(=O)cc(C(F)(F)F)n(C)c2=O)c(F)cc1Cl (centres unmarked) [Compound 165, 3-{4-Chloro-2-fluoro-5-{[3-(1-methyl-2-propynyl)-4-oxo-2-thiazolidinylidene]amino}phenyl}-1-methyl-6-(trifluoromethyl)-2,4(1H,3H)-pyrimidinedione]	0.0	1.0	4.0	9.0	9.0	9.0	0.0	0.0	0.0	–	–	5.0	9.0	4.0	7.0	8.0	–	–	–	–
CCCN1C(=O)CSC1=Nc1cc(-n2c(=O)cc(C(F)(F)F)n(C)c2=O)c(F)cc1Cl [Compound 171, 3-{4-Chloro-2-fluoro-5-[(4-oxo-3-propyl-2-thiazolidinylidene)amino]phenyl}-1-methyl-6-(trifluoromethyl)-2,4 (1H, 3H)-pyrimidinedione]	–	–	7.0	–	–	9.0	0.0	0.0	–	–	–	–	–	5.0	6.0	–	3.0	6.0	9.0	9.0
